Experimental data: patent US5061722A, “Cis, endo-2-azabicyclo-[3.3.0]-octane-3-carboxylic acids, a process for their preparation, agents containing these compounds and their use” (Hoechst AG, priority 1981, dated 1991)

Tests used:
[1] = tested on: pressor reaction induced by 310 ng of angiotensin I; assay: Intraduodenal administration to anesthetized rats, ED50; assay type: in vivo, rat
Method: (§1) 1. Intravenous administration to anesthetized rats, 50% inhibition of the pressor reaction induced by 310 ng of angiotensin I, 30 minutes after administration of the dose . . . ED50
2. Intraduodenal administration to anesthetized rats

[2] = tested on: pressor reaction induced by 310 ng of angiotensin I; assay: Intravenous administration to anesthetized rats, 50% inhibition of the pressor reaction induced by 310 ng of angiotensin I; assay type: in vivo; conditions: Rattus norvegicus, 0.5 h, 30 minutes after administration of the dose
Method: as §1

[3] = tested on: pressor reaction triggered off by intravenous administration of angiotensin I; assay: Oral administration to conscious rats, inhibition of the pressor reaction triggered off by intravenous angiotensin I; assay type: in vivo, rat; conditions: 1 mg/kg
[4] = Rattus norvegicus, read-out: ED50

Compound	ED50 [1]	ED50 [1, 4]	ED50 [2]	duration of the 90% inhibition of the pressor reaction [3]	inhibition of the pressor reaction triggered off by intravenous administration of angiotensin I [3]
C[C@H](N[C@@H](CC(=O)c1ccccc1)C(=O)OCc1ccccc1)C(=O)N1C(C(=O)O)CC2CCCC21 (relative stereo) [X=C6H5, Y=--, Z=O, R1=CH3, R2=C7H7, N-(1-S-Carbobenzyloxy-3-oxo-3-phenyl-propyl)-S-alanyl-2-cis,endo-azabicyclo-[3.3.0]-octane-3-carboxylic acid]	0.25 mg/kg	–	–	–	–
CCOC(=O)[C@H](CC(=O)c1ccccc1)N[C@@H](C)C(=O)N1[C@H](C(=O)O)C[C@@H]2CCC[C@@H]21 [X=C6H5, Y=--, Z=O, R1=CH3, R2=C2H5, N-(1-S-carbethoxy-3-oxo-3-phenyl-propyl)-S-alanyl-cis,endo-2-azabicyclo-[3.3.0]-octane-3-S-carboxylic acid]	–	0.28 mg/kg	–	–	–
CCOC(=O)[C@H](CCc1ccccc1)N[C@@H](C)C(=O)N1[C@H](C(=O)O)C[C@@H]2CCC[C@@H]21 [X=C6H5, Y=H, Z=H, R1=CH3, R2=C2H5, N-(1-S-Carbethoxy-3-phenyl-propyl)-S-alanyl-cis,endo-2-azabicyclo-[3.3.0]-octane-3-S-carboxylic acid]	–	0.05 mg/kg	0.0083 mg/kg	over 6 hours	90%
C[C@H](N[C@@H](CCc1ccccc1)C(=O)O)C(=O)N1[C@H](C(=O)O)C[C@@H]2CCC[C@@H]21 [X=C6H5, Y=H, Z=H, R1=CH3, R2=H, N-(1-S-Carboxy-3-phenyl-propyl)-S-alanyl-cis,endo-2-azabicyclo-[3.3.0]-octane-3-S-carboxylic acid]	–	0.6 mg/kg	0.0027 mg/kg	–	–
